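Each compound was tested at five concentrations against cells in 96-well plates for 48 hours. GI50 marks 50% less growth. The concentration for full growth arrest is given as TGI.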
Key:
Assay in all cases: NCI-60 cell line screen, 48 h
[1] = tested on: NCI/ADR-RES ovarian
[2] = tested on: RXF 393 renal
[3] = tested on: LOX IMVI melanoma
[4] = tested on: IGROV1 ovarian
[5] = tested on: PC-3 prostate
[6] = tested on: U251 CNS
[7] = tested on: NCI-H23 lung
[8] = tested on: COLO 205 colon
[9] = tested on: SR leukemia
[10] = tested on: OVCAR-4 ovarian
[11] = tested on: HOP-92 NSCLC
[12] = tested on: ACHN renal
[13] = tested on: DU-145 prostate
[14] = tested on: SF-295 CNS
[15] = tested on: NCI-H226 lung
[16] = tested on: MCF7 breast
[17] = tested on: HL-60(TB) leukemia
[18] = tested on: HCT-15 colon
[19] = tested on: NCI-H522 lung
[20] = tested on: OVCAR-8 ovarian
[21] = tested on: KM12 colon
[22] = tested on: SF-268 CNS
[23] = tested on: CAKI-1 renal
[24] = tested on: HCC-2998 colon
[25] = tested on: A549 NSCLC
[26] = tested on: SK-MEL-5 melanoma
[27] = tested on: HOP-62 NSCLC
[28] = tested on: UO-31 renal
[29] = tested on: MALME-3M melanoma
[30] = tested on: TK-10 renal
[31] = tested on: SNB-19 CNS
[32] = tested on: EKVX NSCLC
[33] = tested on: SW-620 colon
[34] = tested on: A498 renal
[35] = tested on: M14 melanoma
[36] = tested on: 786-0 renal
[37] = tested on: UACC-62 melanoma
[38] = tested on: SK-MEL-28 melanoma
[39] = tested on: MDA-MB-231 breast
[40] = tested on: HT29 colon
[41] = tested on: MDA-MB-435
[42] = tested on: SN12C renal
[43] = tested on: CCRF-CEM leukemia
[44] = tested on: MOLT-4 leukemia
[45] = tested on: OVCAR-5 ovarian
[46] = tested on: K-562 leukemia
[47] = tested on: T-47D breast
[48] = tested on: SK-OV-3 ovarian
[49] = tested on: NCI-H460 lung
[50] = tested on: HS 578T breast
[51] = tested on: UACC-257 melanoma
[52] = tested on: SF-539 CNS
[53] = tested on: BT-549 breast
[54] = tested on: RPMI-8226 leukemia
[55] = tested on: OVCAR-3 ovarian
[56] = tested on: HCT-116 colon

**Q.** What does the source list for `O=C(/C=C\Sc1ccccn1)c1cccc(Br)c1`?
**A.** GI50 [1]: 8.8 µM; TGI [1]: > 100 µM; GI50 [2]: 2.64 µM; TGI [2]: 8.62 µM; GI50 [3]: 1.69 µM; TGI [3]: 3.12 µM; GI50 [4]: 16.5 µM; TGI [4]: 50.4 µM; GI50 [5]: 7.68 µM; TGI [5]: 22.5 µM; GI50 [6]: 10.2 µM; TGI [6]: 21.8 µM; GI50 [7]: 10.8 µM; TGI [7]: 25.1 µM; GI50 [8]: 5.27 µM; TGI [8]: > 100 µM; GI50 [9]: 1.68 µM; TGI [9]: 3.79 µM; GI50 [10]: 5.71 µM; TGI [10]: > 100 µM; GI50 [11]: 2.64 µM; TGI [11]: 7.85 µM; GI50 [12]: 1.65 µM; TGI [12]: 3 µM; GI50 [13]: 16.3 µM; TGI [13]: 30.7 µM; GI50 [14]: 16 µM; TGI [14]: 39.6 µM; GI50 [15]: 2.32 µM; TGI [15]: 5.46 µM; GI50 [16]: 1.77 µM; TGI [16]: 6.18 µM; GI50 [17]: 2.25 µM; TGI [17]: 6.32 µM; GI50 [18]: 1.4 µM; TGI [18]: 3.23 µM; GI50 [19]: 2.28 µM; TGI [19]: 5.84 µM; GI50 [20]: 3.53 µM; TGI [20]: > 100 µM; GI50 [21]: 13.4 µM; TGI [21]: 28.8 µM; GI50 [22]: 6.53 µM; TGI [22]: 26.4 µM; GI50 [23]: 3.99 µM; TGI [23]: 17.2 µM; GI50 [24]: 3.9 µM; TGI [24]: 15 µM; GI50 [25]: 23 µM; TGI [25]: 80.3 µM; GI50 [26]: 14.1 µM; TGI [26]: 28 µM; GI50 [27]: 17.4 µM; TGI [27]: 33.7 µM; GI50 [28]: 5.15 µM; TGI [28]: 23.1 µM; GI50 [29]: 2.83 µM; TGI [29]: 8.97 µM; GI50 [30]: 3.25 µM; TGI [30]: 12.2 µM; GI50 [31]: 39.1 µM; TGI [31]: > 100 µM; GI50 [32]: 19.3 µM; TGI [32]: 35.7 µM; GI50 [33]: 2.82 µM; TGI [33]: 8.41 µM; GI50 [34]: 19.5 µM; TGI [34]: 36.5 µM; GI50 [35]: 15 µM; TGI [35]: 43.4 µM; GI50 [36]: 2.67 µM; TGI [36]: 6.48 µM; GI50 [37]: 11.7 µM; TGI [37]: 24.5 µM; GI50 [38]: 8.65 µM; TGI [38]: > 100 µM; GI50 [39]: 2.35 µM; TGI [39]: 5.96 µM; GI50 [40]: 3.46 µM; TGI [40]: > 100 µM; GI50 [41]: 9.12 µM; TGI [41]: 77.9 µM; GI50 [42]: 10.2 µM; TGI [42]: 24.3 µM; GI50 [43]: 3 µM; TGI [43]: > 100 µM; GI50 [44]: 1.6 µM; TGI [44]: 4.23 µM; GI50 [45]: 15 µM; TGI [45]: 29.5 µM; GI50 [46]: 2.23 µM; TGI [46]: 6.63 µM; GI50 [47]: 7.54 µM; TGI [47]: > 100 µM; GI50 [48]: > 100 µM; TGI [48]: > 100 µM; GI50 [49]: 9.41 µM; TGI [49]: 29.6 µM; GI50 [50]: 19.5 µM; TGI [50]: 83.3 µM; GI50 [51]: 21.2 µM; TGI [51]: 43.4 µM; GI50 [52]: 8.15 µM; TGI [52]: 25 µM; GI50 [53]: 7.29 µM; TGI [53]: 32 µM; GI50 [54]: 0.0787 µM; TGI [54]: > 100 µM; GI50 [55]: 5.54 µM; TGI [55]: 24.2 µM; GI50 [56]: 1.95 µM; TGI [56]: 3.85 µM

Reference: PubChem BioAssay (NCI)
